Where two headings read alike, the source gives them in different places.
How the values were obtained:
[1] = biological target: T1, human 5-HT2C-INI (Homo sapiens, UniProt P28335); experiment: Calcium flux (FLIPR) assay, human 5-HT2C-INI stably expressed in HEK-293 (Flp-In-293) cells; settings: human 5-HT2C-INI in HEK-293 cells, FLIPR; for EC50: NA = no activity at 10 μM; for Emax, % 5-HT 5-HT2C: normalized to 5-HT
T1 sequence (P28335 33-458): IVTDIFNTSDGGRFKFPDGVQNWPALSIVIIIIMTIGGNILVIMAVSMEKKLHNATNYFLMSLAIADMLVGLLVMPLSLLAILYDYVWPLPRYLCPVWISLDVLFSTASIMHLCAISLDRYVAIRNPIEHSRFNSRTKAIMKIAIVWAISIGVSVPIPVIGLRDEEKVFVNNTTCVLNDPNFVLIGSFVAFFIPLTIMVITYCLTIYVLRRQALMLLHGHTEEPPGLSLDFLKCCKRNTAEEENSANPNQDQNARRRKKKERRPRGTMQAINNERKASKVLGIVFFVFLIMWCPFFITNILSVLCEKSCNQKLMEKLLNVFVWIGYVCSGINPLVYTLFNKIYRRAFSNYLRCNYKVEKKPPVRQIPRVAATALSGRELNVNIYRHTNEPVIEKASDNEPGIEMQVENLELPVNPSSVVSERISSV

[2] = biological target: 5-HT2B (Homo sapiens, UniProt P41595); experiment: Calcium flux (FLIPR) assay, human 5-HT2B stably expressed in HEK-293 (Flp-In-293) cells; settings: human 5-HT2B in HEK-293 cells; for EC50: EC50, nM 5-HT2B, NA = no activity at 10 μM; for Emax, % 5-HT 5-HT2B: normalized to 5-HT
5-HT2B, sequence (P41595 whole entry): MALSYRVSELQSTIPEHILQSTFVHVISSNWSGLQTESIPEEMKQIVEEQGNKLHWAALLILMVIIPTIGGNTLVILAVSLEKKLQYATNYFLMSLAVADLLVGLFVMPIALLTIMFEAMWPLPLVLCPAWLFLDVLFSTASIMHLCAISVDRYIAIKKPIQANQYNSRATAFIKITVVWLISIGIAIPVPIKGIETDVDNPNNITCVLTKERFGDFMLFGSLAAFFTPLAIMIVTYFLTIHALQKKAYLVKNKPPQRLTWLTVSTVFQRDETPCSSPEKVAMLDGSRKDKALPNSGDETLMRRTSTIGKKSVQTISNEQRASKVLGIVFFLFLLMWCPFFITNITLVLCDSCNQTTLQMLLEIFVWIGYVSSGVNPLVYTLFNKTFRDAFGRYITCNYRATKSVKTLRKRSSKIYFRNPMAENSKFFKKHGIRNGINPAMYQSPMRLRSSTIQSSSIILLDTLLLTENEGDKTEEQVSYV

SMILES	EC50 ([1]; EC50, nM 5-HT2C) [nM]	Emax, % 5-HT 5-HT2C [1]	EC50 [2] [nM]	Emax, % 5-HT 5-HT2B [2]	EC50 ([1]; read-out: EC50, nM 5-HT2C) [nM]
C=C(F)COc1ccc(F)cc1C1CC1CN (single isomer, unassigned; (-)) [(−)-Example 9, (−)-(2-(5-Fluoro-2-((2-fluoroallyl)oxy)phenyl)cyclopropyl)methanamine]	985	(62%) % 5-HT	–	–	–
C=C(C)COc1ccc(Cl)cc1C1CC1CN (single isomer, unassigned; (-)) [(−)-Example 24, (−)-(2-(5-Chloro-2-((2-methylallyl)oxy)phenyl)cyclopropyl)methanamine]	–	–	6090	(39%) % 5-HT	–
C=CCOc1ccc(Cl)c(Cl)c1C1CC1CN (single isomer, unassigned; (+)) [(+)-Example 39]	–	(70%) % 5-HT	–	–	165
CCCOc1ccc(F)c(F)c1C1CC1CN (single isomer, unassigned; (-)) [(−)-Example 48, (−)-(2-(2,3-Difluoro-6-propoxyphenyl)cyclopropyl)methanamine]	357	(68%) % 5-HT	–	–	–
NCC1CC1c1c(OCCF)ccc(F)c1F (single isomer, unassigned; (+)) [(+)-Example 47, (+)-(2-(2,3-Difluoro-6-(2-fluoroethoxy)phenyl)cyclopropyl)methanamine]	25	(95%) % 5-HT	–	–	–
C=CCOc1cc(Cl)c(Cl)cc1C1CC1CN (single isomer, unassigned; (+)) [(+)-Example 35, (+)-(2-(2-(Allyloxy)-4,5-dichlorophenyl)cyclopropyl)methanamine]	61	(88%) % 5-HT	–	–	–
NCC1CC1c1c(OCCF)ccc(F)c1Cl (single isomer, unassigned; (+)) [(+)-Example 52, (+)-(2-(2-Chloro-3-fluoro-6-(2-fluoroethoxy)phenyl)cyclopropyl)methanamine]	49	(86%) % 5-HT	–	–	–
NCC1CC1c1cc(F)c(F)cc1OCCF (single isomer, unassigned; (+)) [(+)-Example 42, (+)-(2-(4,5-Difluoro-2-(2-fluoroethoxy)phenyl)cyclopropyl)methanamine]	7.3	(95%) % 5-HT	–	–	–
CSCCOc1ccc(Cl)cc1C1CC1CN (single isomer, unassigned; (+)) [(+)-Example 18, (+)-(2-(5-Chloro-2-(2-(methylthio)ethoxy)phenyl)cyclopropyl)methanamine]	244	(24%) % 5-HT	–	–	–
NCC1CC1c1cc(F)c(F)cc1OCCF (single isomer, unassigned; (-)) [(−)-Example 42, (−)-(2-(4,5-Difluoro-2-(2-fluoroethoxy)phenyl)cyclopropyl)methanamine]	772	(73%) % 5-HT	–	–	–
CSCCOc1ccc(Cl)cc1C1CC1CN (single isomer, unassigned; (-)) [(−)-Example 18, (−)-(2-(5-Chloro-2-(2-(methylthio)ethoxy)phenyl)cyclopropyl)methanamine]	1760	(11%) % 5-HT	–	–	–
C=CCOc1ccc(F)c(Cl)c1C1CC1CN (single isomer, unassigned; (+)) [(+)-Example 53, (+)-(2-(6-(Allyloxy)-2-chloro-3-fluorophenyl)cyclopropyl)methanamine]	96	(92% 5-HT	–	–	–
C=C(F)COc1ccc(Cl)cc1C1CC1CN (single isomer, unassigned; (-)) [(−)-Example 25, (−)-(2-(5-Chloro-2-((2-fluoroallyl)oxy)phenyl)cyclopropyl)methanamine]	–	–	6880	(33%) % 5-HT	–
COCCOc1ccc(Cl)cc1C1CC1CN (single isomer, unassigned; (+)) [(+)-Example 17, (+)-(2-(5-Chloro-2-(2-methoxyethoxy)phenyl)cyclopropyl)methanamine]	183	(8%) % 5-HT	–	–	–

Source: patent US10407381B2 (THE BOARD OF TRUSTEES OF THE UNIVERSITY OF ILLINOIS, priority 2015, dated 2019)
